Laboratory results reported in US12673947B2 (Cytosinlab Therapeutics Co., Ltd., priority 2020, dated 2026).

Tests used:
[1] = molecular target: T1, FLT3 (Homo sapiens, UniProt P36888); assay: FLT3 kinase in vitro inhibitory activity experiment (Caliper mobility shift, conversion rate); type: biochemical; conditions: IC50 class, read-out: Enzyme activity FLT3
T1 construct: purchased Carna 08-145
T1 sequence (P36888 27-993): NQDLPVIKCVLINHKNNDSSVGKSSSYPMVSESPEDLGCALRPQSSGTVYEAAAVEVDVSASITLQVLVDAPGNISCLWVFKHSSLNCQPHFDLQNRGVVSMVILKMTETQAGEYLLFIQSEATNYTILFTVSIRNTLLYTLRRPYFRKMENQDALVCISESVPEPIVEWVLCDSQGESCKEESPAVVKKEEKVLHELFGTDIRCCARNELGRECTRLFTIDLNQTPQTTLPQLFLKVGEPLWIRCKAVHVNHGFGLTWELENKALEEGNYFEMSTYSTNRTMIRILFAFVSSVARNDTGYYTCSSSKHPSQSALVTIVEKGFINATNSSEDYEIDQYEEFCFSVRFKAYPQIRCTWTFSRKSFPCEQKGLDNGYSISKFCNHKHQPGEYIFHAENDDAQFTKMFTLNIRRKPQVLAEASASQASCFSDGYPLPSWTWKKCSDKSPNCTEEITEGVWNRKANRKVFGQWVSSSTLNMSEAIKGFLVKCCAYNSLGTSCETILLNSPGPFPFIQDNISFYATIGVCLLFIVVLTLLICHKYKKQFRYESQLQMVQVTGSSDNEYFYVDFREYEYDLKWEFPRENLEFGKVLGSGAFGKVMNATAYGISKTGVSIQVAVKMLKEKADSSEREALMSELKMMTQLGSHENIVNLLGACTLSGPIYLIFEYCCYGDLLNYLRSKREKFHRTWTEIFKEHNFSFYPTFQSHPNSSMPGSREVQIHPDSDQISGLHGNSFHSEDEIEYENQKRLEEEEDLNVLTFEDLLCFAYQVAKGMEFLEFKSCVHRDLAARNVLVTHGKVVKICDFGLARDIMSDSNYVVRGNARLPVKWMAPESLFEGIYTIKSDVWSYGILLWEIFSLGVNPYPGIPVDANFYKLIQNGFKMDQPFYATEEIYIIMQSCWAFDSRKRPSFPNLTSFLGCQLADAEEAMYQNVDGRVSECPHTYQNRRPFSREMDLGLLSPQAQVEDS
How it was run: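 Tested in single wells as ten 3-fold dilutions of a 1 μM initial stock. Compound and FLT3 stood 10 min at room temperature; ATP with Kinase substrate 2 was then added for 30 min at room temperature and the reaction stopped. Conversion was measured by Caliper mobility shift, and inhibition was normalised to control-well conversion.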

[2] = tested on: MV4;11 cells; assay: MV4;11 in vitro inhibition of proliferation assay (CellTiter-Glo, 72 hours); type: cell-based; conditions: Homo sapiens, MV4-11, 72 h, IC50 class, read-out: Inhibitory activity of cell proliferation MV4;11
How it was run: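 IC50 came from four-parameter fitting of inhibition rates, based on CellTiter-Glo luminescence after 72 hours at 37° C. Each well held 2000 MV4;11 cells grown in IMDM with 10% serum. Compounds formed a nine-point, threefold DMSO series starting at 10 uM, tested in triplicate at 0.3% final DMSO.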

SMILES	IC50 [1] [nM]	IC50 [2] [nM]
CCc1nc2c(N)ncc(-c3cnn(C4CCN(C5CCN(C)CC5)CC4)c3)c2nc1N[C@@H]1CC[C@H](O)C1 [Compound 249]	≤ 10	≤ 10
CCc1nc2c(N)ncc(-c3ccc(N4CCC(N5CCN(C)CC5)CC4)c(OC)c3)c2nc1N[C@@H]1CCOC1 [Compound 251]	≤ 10	10 to 100
CCc1nc2c(N)ncc(-c3ccc(N4CCC(N5CCN(C)CC5)CC4)c(OC)c3)c2nc1N[C@H]1CCOC1 [Compound 252]	≤ 10	10 to 100
CCc1nc2c(N)ncc(-c3ccc(N4CCC(N5CCN(CC)CC5)CC4)c(OC)c3)c2nc1N[C@@H]1CC[C@H](O)C1 [Compound 253]	≤ 10	≤ 10
CCc1nc2c(N)ncc(-c3ccc(N4CCC(N5CCN(C)CC5)CC4)c(OC)c3)c2nc1N[C@@H]1CCC[C@H](O)C1 [Compound 257]	≤ 10	≤ 10
CCc1nc2c(N)ncc(-c3cnn(C4CCN(C(C)C)CC4)c3)c2nc1N[C@@H]1CCC[C@H](O)C1 [Compound 260]	≤ 10	≤ 10
CCc1nc2c(N)ncc(-c3cnn(C4CCN(C)CC4)c3)c2nc1N1CCC(O)C1 (stereo not shown) [Compound 261]	≤ 10	10 to 100
CCc1nc2c(N)ncc(-c3ccc(N4C[C@@H](C)O[C@@H](C)C4)c(OC)c3)c2nc1N[C@@H]1CC[C@H](O)C1 [Compound 265]	≤ 10	10 to 100
CCc1nc2c(N)ncc(-c3ccc(N4CC5CCC(C4)O5)c(OC)c3)c2nc1N[C@@H]1CC[C@H](O)C1 [Compound 266]	≤ 10	10 to 100
CCc1nc2c(N)ncc(-c3ccc(N4C[C@H](C)O[C@@H](C)C4)c(OC)c3)c2nc1N[C@@H]1CC[C@H](O)C1 [Compound 267]	≤ 10	10 to 100
CCc1nc2c(N)ncc(-c3ccc(N4CCC(N5CCN(C)CC5)CC4)c(C(F)F)c3)c2nc1NC1CCOCC1 [Compound 268]	≤ 10	10 to 100
CCc1nc2c(N)ncc(-c3cnn(-c4ncncc4C)c3)c2nc1N[C@@H]1CC[C@H](O)C1 [Compound 269, (1S,3R)-3-((5-amino-3-ethyl-8-(1-(5-methylpyrimidin-4-yl)-1H-pyrazol-4-yl)pyridino[3,4-b]pyrazin-2-yl)amino)cyclopentan-1-ol]	≤ 10	≤ 10
CCc1nc2c(N)ncc(-c3cnn(-c4cc(C)nc(C)n4)c3)c2nc1N[C@@H]1CC[C@H](O)C1 [Compound 270]	≤ 10	10 to 100
CCc1nc2c(N)ncc(-c3cnn(-c4ccnc(C(F)(F)F)n4)c3)c2nc1N[C@@H]1CC[C@H](O)C1 [Compound 274]	≤ 10	10 to 100
CCc1nc2c(N)ncc(-c3cnn(-c4ccnc(C)n4)c3)c2nc1NC1CCOCC1 [Compound 280]	≤ 10	≤ 10
CCc1nc2c(N)ncc(-c3cnn(-c4ccnc(C)n4)c3)c2nc1N[C@H]1CCOC1 [Compound 281]	10 to 100	10 to 100
CCc1nc2c(N)ncc(-c3cnn(C4CCS(=O)(=O)CC4)c3)c2nc1N[C@@H]1CC[C@H](O)C1 [Compound 282]	≤ 10	10 to 100
CCc1nc2c(N)ncc(-c3cnn(C4CCc5cc(F)cc(F)c5CC4)c3)c2nc1N[C@@H]1CC[C@H](O)C1 (stereo partly shown) [Compound 283]	≤ 10	10 to 100
CCc1nc2c(N)ncc(-c3ccc(N4CC5CCC(C4)N5C)c(OC)c3)c2nc1N[C@@H]1CC[C@H](O)C1 [Compound 286, (1S, 3R)-3-((5-amino-3-ethyl-8-(3-methoxy-4-(8-methyl-3,8-diazabicyclo[3.2.1]octyl-3-yl)phenyl)pyridino[3,4-b]pyrazine-2-yl)amino)cyclopentan-1-ol]	≤ 10	≤ 10
CCc1nc2c(N)ncc(-c3ccc(N4CCC(N5CCN(C)CC5)C(C)C4)c(OC)c3)c2nc1NC1CCOCC1 (stereo not shown) [Compound 287, 3-ethyl-8-(3-methoxy-4-(3-methyl-4-(4-methylpiperazine-1-yl)piperidine-1-yl)phenyl)-N2-(tetrahydro-2H-pyran-4-yl)pyridino[3,4-b]pyrazine-2,5-diamine]	≤ 10	10 to 100
CCc1nc2c(N)ncc(-c3ccc(-c4ccnc(C)n4)c(OC)c3)c2nc1N[C@@H]1CC[C@H](O)C1 [Compound 288, (1S,3R)-3-((5-amino-3-ethyl-8-(3-methoxy-4-(2-methylpyrimidine-4-yl)phenyl)pyrido[3,4-b]pyrazine-2-yl)amino)cyclopentan-1-ol]	≤ 10	10 to 100
CCc1nc2c(N)ncc(-c3ccc(N4CCC(N5CC6CCC(C5)N6C)CC4)c(OC)c3)c2nc1NC1CCOCC1 [Compound 293, 3-ethyl-8-(3-methoxy-4-(4-(8-methyl-3,8-diazabicyclo[3.2.1]octan-3-yl)piperidin-1-yl)phenyl)-N2-(tetrahydro-2H-pyran-4-yl)pyridino [3,4-b]pyrazin-2,5-diamine]	≤ 10	10 to 100

The remaining lines, values ahead:

IC50 [1] [nM]	IC50 [2] [nM]	SMILES
≤ 10	10 to 100	CCc1nc2c(N)ncc(-c3cnn(-c4cccc(C)n4)c3)c2nc1N[C@@H]1CC[C@H](O)C1 [Compound 271]
≤ 10	≤ 10	CCc1nc2c(N)ncc(-c3cnn(-c4ccnc(C)c4)c3)c2nc1N[C@@H]1CC[C@H](O)C1 [Compound 272]
≤ 10	≤ 10	CCc1nc2c(N)ncc(-c3cnn(-c4ccn(C(C)C)c(=O)c4)c3)c2nc1N[C@@H]1CC[C@H](O)C1 [Compound 273]
≤ 10	10 to 100	CCc1nc2c(N)ncc(-c3cnn(-c4ccc(OC(C)C)nc4)c3)c2nc1N[C@@H]1CC[C@H](O)C1 [Compound 275]
≤ 10	≤ 10	CCc1nc2c(N)ncc(-c3cnn(-c4ccc(C(C)(C)O)cn4)c3)c2nc1N[C@@H]1CC[C@H](O)C1 [Compound 276]
10 to 100	100 to 500	CCc1nc2c(N)ncc(-c3cnn(-c4ccc(C5CCCCC5)cc4)c3)c2nc1N[C@@H]1CC[C@H](O)C1 [Compound 277]
≤ 10	≤ 10	CCc1nc2c(N)ncc(-c3cnn(-c4ccc(C5CCNCC5)cc4)c3)c2nc1N[C@@H]1CC[C@H](O)C1 [Compound 278]
10 to 100	10 to 100	CCc1nc2c(N)ncc(-c3cnn(-c4ccc(Cl)c(C)c4)c3)c2nc1N[C@@H]1CC[C@H](O)C1 [Compound 279]
≤ 10	≤ 10	CCc1nc2c(N)ncc(-c3cnn(-c4ccc(C5CCN(C)CC5)cc4)c3)c2nc1N[C@@H]1CC[C@H](O)C1 [Compound 290]
≤ 10	10 to 100	CCc1nc2c(N)ncc(-c3cnn(-c4ccc(Cl)cc4)c3)c2nc1N[C@@H]1CC[C@H](O)C1 [Compound 291]
> 500	100 to 500	CCc1nc2c(N)ncc(-c3cnn(-c4ccc(OC5CCN(C)CC5)cc4)c3)c2nc1N[C@@H]1CC[C@H](O)C1 [Compound 292, (1S, 3R)-3-((5-amino-3-ethyl-8-(1-(4-((1-methylpiperidin-4-yl)oxy)phenyl)-1H-pyrazol-4-yl)pyridino[3,4-b]pyrazin-2-yl)amino)cyclopentan-1-ol]
≤ 10	≤ 10	CCc1nc2c(N)ncc(-c3cnn(-c4ncccn4)c3)c2nc1N[C@@H]1CC[C@H](O)C1 [Compound 294]
≤ 10	≤ 10	CCc1nc2c(N)ncc(-c3cnn(-c4cncnc4)c3)c2nc1N[C@@H]1CC[C@H](O)C1 [Compound 295]
